The term Kd denotes a measure of binding affinity in units of concentration. A high value points to weaker binding.

Results on two compounds are retold here after US9625458B2, “Biosensor” (priority 2002, dated 2017).

The target in assay [1] is T1, E. coli dipeptide binding protein (DPP), fluorophore-conjugated cysteine mutants (Escherichia coli, UniProt P23847).
T1 construct: several single-Cys mutants (e.g. K394C) with fluorophore
The experiment in a line: Ligand affinity of dipeptide BP fluorescent conjugates (Kd range). The settings on record: range over conjugates, n=21. From the text: (§1) Molecular Cloning. […] Amplified products were cloned into one of the protein expression vectors pAED4 (Doering, “Functional and structural studies of a small f-actin binding domain” in Ph.D. thesis, Massachusetts Institute of Technology, 1992); pKK223-3 (Brosius & Holy, Proc. Natl. Acad. Sci. USA 81:6929-6933, 1984); or pET vectors (Studier et al., Meth. Enzymol. 185:60-89, 1990) (Novagen). N-terminal oligonucleotide primers were designed to clone only the processed periplasmic form, deleting the signal sequence. The C-terminal primer was designed to append the sequence Gly-Ser-Gly-(His)n or Gly-Ser-(His)n, where n=5, 6, or 10. Two tandem stop codons (TAATGA) follow the last His codon. […] Additionally the sequence of Fe(III) BP was mutated by substitution of Glu57 with Asp to raise the Kd to a concentration range conveniently measured using Fe(III) citrate.
(§2) Fluorophore conjugation to cysteine-substituted bPBPs. […] The efficiency of reporter group attachment was assessed by determination of unreacted thiol with Ellman's reagent (Ellman, Arch. Biochem. Biophys. 74:443-450, 1958) or by measuring the ratio of fluorophore to protein from absorbance spectra of the purified conjugate.
(§3) Fluorimetry. […] Fluorescence emission spectra were acquired with excitation and emission slit widths of 4 and 8 nm, respectively. […]

For assay [2], the target named is T2, E. coli dipeptide binding protein variant D450C, fluorophore conjugate (Escherichia coli, UniProt P23847, D478C).
T2 construct: initiator methionine (N); Gly-Ser-Gly-(His)n or Gly-Ser-(His)n (n = 5, 6 or 10) (C); made in house; host or cells: E. coli BL21-DE3
The assay can be described thus: Fluorimetric titration of fluorophore conjugates. To be noted: peristeric site. The source says:
(§4) Molecular Cloning. […] Amplified products were cloned into one of the protein expression vectors pAED4 (Doering, “Functional and structural studies of a small f-actin binding domain” in Ph.D. thesis, Massachusetts Institute of Technology, 1992); pKK223-3 (Brosius & Holy, Proc. Natl. Acad. Sci. USA 81:6929-6933, 1984); or pET vectors (Studier et al., Meth. Enzymol. 185:60-89, 1990) (Novagen). N-terminal oligonucleotide primers were designed to clone only the processed periplasmic form, deleting the signal sequence. The C-terminal primer was designed to append the sequence Gly-Ser-Gly-(His)n or Gly-Ser-(His)n, where n=5, 6, or 10. Two tandem stop codons (TAATGA) follow the last His codon. […] Single amino acid substitutions were generated by overlapping PCR mutagenesis (Ho et al., Gene 77:51-59, 1989). All clones and mutations were confirmed by nucleotide sequencing. In the case of arabinose BP, the single cysteine in the wild type sequence was replaced by alanine to eliminate the possibility of reporter group conjugation to this thiol (Miller et al., J. Biol. Chem. 254:7521-7528, 1979). Additionally the sequence of Fe(III) BP was mutated by substitution of Glu57 with Asp to raise the Kd to a concentration range conveniently measured using Fe(III) citrate.
(§5) Fluorophore conjugation to cysteine-substituted bPBPs. Thiol-reactive fluorophores obtained from Molecular Probes (Eugene, Oreg.) were 5-iodoacetamidofluorescein (fluorescein); N-(1-pyrene) iodoacetamide (pyrene); N,N′-dimethyl-N-(iodoacetyl)-N′-(7-nitrobenz-2-oxa-1,3-diazol-4-yl)ethylenediamide (NBD); N-((2-(iodoacetoxy)ethyl)-N-methyl)amino-7-nitrobenz-2-oxa-1,3-diazole (NBDE); and 6-acryloyl-2-dimethylaminonaphthalene (acrylodan). The styryl and naphthyl dyes JPW4039, JPW4042, and JPW4045 (FIG. 3) were synthesized at the University of Connecticut. All fluorophore conjugation steps were typically carried out at room temperature. To protein at a concentration of 100 μM was added tris-(2-carboxyethyl)phosphine HCl to a five-fold molar excess to reduce intermolecular disulfide bonds. A thiol-reactive fluorophore (20 to 25 mM in acetonitrile or dimethyl sulfoxide) was added in small aliquots to a five-fold molar excess over protein. Conjugation proceeded in the dark at room temperature for 4 hours, or overnight at 4° C. Separation of protein from unreacted fluorophore was achieved by exhaustive dialysis or by size-exclusion chromatography. The efficiency of reporter group attachment was assessed by determination of unreacted thiol with Ellman's reagent (Ellman, Arch. Biochem. Biophys. 74:443-450, 1958) or by measuring the ratio of fluorophore to protein from absorbance spectra of the purified conjugate.
(§6) Fluorimetry. All measurements were conducted with an SLM Aminco-Bowman series 2 fluorimeter, with sample stirring at 25° C. Fluorescence emission spectra were acquired with excitation and emission slit widths of 4 and 8 nm, respectively. Photomultiplier tube potential was maintained between 400 and 800 volts. Protein concentrations were in the range of 50 to 1000 nM. Fluorophore-specific excitation was at the following approximate wavelengths: tryptophan, 290 nm; acrylodan, 390 nm; fluorescein, 485 nm; pyrene, 340 nm; NBD and NBDE, 490 nm; JPW4039, 485 nm; JPW4042, 470 nm; JPW4045, 470 nm.
(§7) Corrections were made for dilution of the protein and for background signal from buffer. Binding curves were fit to binding isotherms using equation 3 or 4, as appropriate.
(§8) Analyte affinity measurements. […] The emission wavelength monitored was that of maximum difference in intensity between the ligand-free and bound states. For each conjugate, fluorescence intensiometric observations were fit to a hyperbolic binding isotherm for a two-state model (Marvin et al., Proc. Natl. Acad. Sci. USA 94:4366-4371, 1997): […]

For assay [3], the target named is T3, E. coli dipeptide binding protein variant K394C, fluorophore conjugate (Escherichia coli, UniProt P23847, K422C).
T3 construct: initiator methionine (N); Gly-Ser-Gly-(His)n or Gly-Ser-(His)n (n = 5, 6 or 10) (C); made in house; host or cells: E. coli BL21-DE3
The experiment in a line: Fluorimetric titration of fluorophore conjugates.
From the text: as §4, §5, §6, §7, §8

The target of assay [4] is T4, E. coli dipeptide binding protein variant R141C, fluorophore conjugate (Escherichia coli, UniProt P23847, R169C).
T4 construct: initiator methionine (N); Gly-Ser-Gly-(His)n or Gly-Ser-(His)n (n = 5, 6 or 10) (C); made in house; host or cells: E. coli BL21-DE3
The assay can be described thus: Fluorimetric titration of fluorophore conjugates. The settings on record: peristeric site.
From the text: as §4, §5, §6, §7, §8

Assay [5] deals with T5, E. coli dipeptide binding protein variant S111C, fluorophore conjugate (Escherichia coli, UniProt P23847, S139C).
T5 construct: initiator methionine (N); Gly-Ser-Gly-(His)n or Gly-Ser-(His)n (n = 5, 6 or 10) (C); made in house; host or cells: E. coli BL21-DE3
The experiment in a line: Fluorimetric titration of fluorophore conjugates. To be noted: peristeric site.
From the text: as §4, §5, §6, §7, §8

Assay [6] deals with T6, E. coli dipeptide binding protein variant T44C, fluorophore conjugate (Escherichia coli, UniProt P23847, T72C).
T6 construct: initiation methionine (N); Gly-Ser-Gly-(His)n or Gly-Ser-(His)n (C); made in house; host or cells: E. coli BL21-DE3
The assay can be described thus: Fluorimetric titration of fluorophore conjugates. The settings on record: peristeric site.
From the text: as §4, §5, §6, §7, §8

Assay [7] has as its target T7, E. coli dipeptide binding protein variant W315C, fluorophore conjugate (Escherichia coli, UniProt P23847, W343C).
T7 construct: initiation methionine (N); Gly-Ser-Gly-(His)n or Gly-Ser-(His)n (C); made in house; host or cells: E. coli BL21-DE3
The experiment in a line: Fluorimetric titration of fluorophore conjugates. To be noted: peristeric site.
From the text: as §4, §5, §6, §7, §8

For assay [8], the target named is T8, E. coli ribose binding protein (RBP), fluorophore-conjugated cysteine mutants (Escherichia coli, UniProt P02925).
T8 construct: single-Cys mutants (e.g. T135C, E192C) with fluorophores
The experiment in a line: Ligand affinity of ribose BP fluorescent conjugates (Kd range). The settings on record: range over conjugates, n=14.
From the text: as §1, §2, §3

Assay [9] addresses T9, E. coli ribose binding protein variant A234C, fluorophore conjugate (Escherichia coli, UniProt P02925, A259C).
T9 construct: Gly-Ser-Gly-(His)n or Gly-Ser-(His)n, n=5, 6 or 10 (C); initiator methionine (N); made in house; host or cells: E. coli strain BL21-DE3
The assay can be described thus: Fluorimetric titration of fluorophore conjugates. The settings on record: ligand ribose.
From the text: as §4, §5, §6, §7, §8

The target in assay [10] is T10, E. coli ribose binding protein variant E192C, fluorophore conjugate (Escherichia coli, UniProt P02925, E217C).
T10 construct: Gly-Ser-Gly-(His)n or Gly-Ser-(His)n, n=5, 6 or 10 (C); initiator methionine (N); made in house; host or cells: E. coli strain BL21-DE3
The experiment in a line: Fluorimetric titration of fluorophore conjugates.
From the text: as §4, §5, §6, §7, §8

Assay [11] has as its target T11, E. coli ribose binding protein variant L236C, fluorophore conjugate (Escherichia coli, UniProt P02925, L261C).
T11 construct: Gly-Ser-Gly-(His)n or Gly-Ser-(His)n, n=5, 6 or 10 (C); initiator methionine (N); made in house; host or cells: E. coli strain BL21-DE3
The assay can be described thus: Fluorimetric titration of fluorophore conjugates. To be noted: ligand ribose.
From the text: as §4, §5, §6, §7, §8

For assay [12], the target named is T12, E. coli ribose binding protein variant L265C, fluorophore conjugate (Escherichia coli, UniProt P02925, L290C).
T12 construct: Gly-Ser-Gly-(His)n or Gly-Ser-(His)n, n=5, 6 or 10 (C); initiator methionine (N); made in house; host or cells: E. coli strain BL21-DE3
The assay can be described thus: Fluorimetric titration of fluorophore conjugates.
From the text: as §4, §5, §6, §7, §8

T7 sequence (P23847 29-535 W343C): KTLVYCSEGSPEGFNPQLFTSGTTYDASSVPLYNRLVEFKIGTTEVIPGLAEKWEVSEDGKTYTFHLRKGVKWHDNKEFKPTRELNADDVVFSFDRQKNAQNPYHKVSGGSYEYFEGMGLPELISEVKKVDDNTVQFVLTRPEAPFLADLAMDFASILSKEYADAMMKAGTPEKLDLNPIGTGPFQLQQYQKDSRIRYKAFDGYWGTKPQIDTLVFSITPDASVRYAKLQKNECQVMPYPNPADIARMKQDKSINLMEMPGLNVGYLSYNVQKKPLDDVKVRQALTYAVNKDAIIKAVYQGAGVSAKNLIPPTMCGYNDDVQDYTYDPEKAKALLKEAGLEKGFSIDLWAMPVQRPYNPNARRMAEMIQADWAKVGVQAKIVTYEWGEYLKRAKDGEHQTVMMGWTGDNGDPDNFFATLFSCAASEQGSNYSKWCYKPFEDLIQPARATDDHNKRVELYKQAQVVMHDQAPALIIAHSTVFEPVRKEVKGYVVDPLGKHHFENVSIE
T10 sequence (P02925 26-296 E217C): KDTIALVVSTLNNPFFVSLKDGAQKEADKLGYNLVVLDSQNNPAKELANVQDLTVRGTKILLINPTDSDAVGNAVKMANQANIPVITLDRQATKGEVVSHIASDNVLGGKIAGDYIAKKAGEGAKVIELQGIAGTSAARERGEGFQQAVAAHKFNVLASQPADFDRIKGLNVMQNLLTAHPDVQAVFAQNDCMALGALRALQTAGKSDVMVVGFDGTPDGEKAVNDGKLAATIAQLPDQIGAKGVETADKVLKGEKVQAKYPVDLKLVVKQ
T5 sequence (P23847 29-535 S139C): as the sequence (P23847 29-535 W343C) above, with S111C, C315W counted along it
T3 sequence (P23847 29-535 K422C): as the sequence (P23847 29-535 W343C) above, with C315W, K394C counted along it
T2 sequence (P23847 29-535 D478C): as the sequence (P23847 29-535 W343C) above, with C315W, D450C counted along it
T9 sequence (P02925 26-296 A259C): as the sequence (P02925 26-296 E217C) above, with C192E, A234C counted along it
T11 sequence (P02925 26-296 L261C): as the sequence (P02925 26-296 E217C) above, with C192E, L236C counted along it
T6 sequence (P23847 29-535 T72C): as the sequence (P23847 29-535 W343C) above, with T44C, C315W counted along it
T4 sequence (P23847 29-535 R169C): as the sequence (P23847 29-535 W343C) above, with R141C, C315W counted along it
T1 sequence (P23847 29-535, stated change not applied): as the sequence (P23847 29-535 W343C) above, with C315W counted along it
T8 sequence (P02925 26-296, stated change not applied): as the sequence (P02925 26-296 E217C) above, with C192E counted along it
T12 sequence (P02925 26-296 L290C): as the sequence (P02925 26-296 E217C) above, with C192E, L265C counted along it

Consider `CC(C)C[C@H](NC(=O)CN)C(=O)O` [Gly-Leu, Gly-Leu dipeptide], for which the “range of Kd” value in assay [1] was in the range of 6 to 93000 nM. For the same compound, the Kd in assay [2] (Acrylodan conjugate) turned out to be 11000 nM; in assay [2] (JPW4039 conjugate) it was 910 nM; in [2] (JPW4042 conjugate), 1500 nM; in assay [2] (JPW4045 conjugate), 2000 nM; in assay [3] (Kd, Acrylodan conjugate, peristeric site), 23000 nM; in [3] (Kd, Fluorescein conjugate, peristeric site), 93000 nM. Further, the Kd in [3] (Kd, JPW4039 conjugate, peristeric site) came out at 30000 nM; in assay [3] (Kd, JPW4042 conjugate, peristeric site) it was 78000 nM; in assay [3] (Kd, NBD conjugate, peristeric site) it was 12 nM; in assay [3] (affinity for Gly-Leu dipeptide (Kd), K394C-NBD conjugate) it was 6 nM; in assay [3] (affinity for Gly-Leu dipeptide (Kd), K394C-fluorescein conjugate), 93000 nM; in [4] (Acrylodan conjugate), 2300 nM. The dissociation constant (Kd) in assay [4] (Fluorescein conjugate) was 38000 nM; in assay [5] (Acrylodan conjugate), 4800 nM; in assay [5] (Fluorescein conjugate), 2600 nM; in assay [5] (JPW4039 conjugate) it was 34000 nM; in [5] (JPW4042 conjugate) it was 15800 nM; in assay [6] (Fluorescein conjugate), 640 nM. In addition, the Kd in [6] (NBD conjugate) was found to be 6 nM; in [7] (Acrylodan conjugate), 130 nM; in [7] (JPW4039 conjugate), 1000 nM; in assay [7] (JPW4045 conjugate), 3200 nM; in assay [7] (NBD conjugate), 60 nM.
Consider `OC1OC[C@@H](O)[C@@H](O)[C@H]1O` (stereo partly shown) [ribose], for which the “range of Kd” value in assay [8] lay in the range of 100 to 2.09e+06 nM. Further, the Kd in [9] (JPW4039 conjugate) came to 1840 nM; in [9] (JPW4045 conjugate), 3760 nM; in assay [9] (NBD conjugate), 735 nM; in [10] (Kd, Fluorescein conjugate, E192C, ligand ribose), 11400 nM; in assay [10] (Kd, JPW4039 conjugate, E192C, ligand ribose), 2570 nM; in assay [10] (Kd, JPW4042 conjugate, E192C, ligand ribose), 5030 nM. Further, the Kd in [10] (Kd, JPW4045 conjugate, E192C, ligand ribose) worked out at 15000 nM; in [10] (Kd, NBD conjugate, E192C, ligand ribose), 2600 nM; in [10] (affinity for ribose (Kd), E192C-JPW4039 conjugate), 2600 nM; in assay [10] (affinity for ribose (Kd), E192C-JPW4045 conjugate) it was 15000 nM; in assay [10] (affinity for ribose (Kd), E192C-NBD conjugate) it was 2600 nM; in assay [11] (JPW4042 conjugate) it was 620 nM. Further, the results for the Kd in assay [11] (JPW4045 conjugate), in assay [11] (NBD conjugate) and in assay [12] were 1530 nM, 100 nM and 260 nM, respectively.
